Here are results for 23 compounds from patent publication US9029401B2 (The Regents of the University of California, priority 2011, dated 2015).

Read-outs that look alike come from different tables or passages of the source.

The subject of assay [1] is ACHN renal cell carcinoma cell line. The experiment in a line: MTT cell viability assay, ACHN. It is filed as cell-based. To be noted: Homo sapiens, 72 h, read-out: EC50 on cell viability, ACHN (Kidney). How it is done:
(§1) Cell-based assays were performed using the described cell lines, grown in the appropriate Growth Mediums containing 10% fetal bovine serum and 1% penicillin-streptomycin. Cancer cells were plated at 15,000 cells/well in 96-well plates and allowed to attach overnight. […] Cell viability was determined after 72 hours incubation periods. To determine anti-proliferative effects of inhibitors, cellular proliferation was determined using the colorimetric MTT cell viability assay kit, as described by the manufacture (ATCC).

A further assay deals with human sEH (Homo sapiens (Human), UniProt P34913). The experiment in a line: Inhibitory activity against human sEH. Format: biochemical.
For another assay, the system named is HepG2 hepatoma cell line. The experiment in a line: MTT cell viability assay, HepG2. It is filed as cell-based. To be noted: for EC50: Homo sapiens, read-out: EC50 on cell viability, HepG2 (Liver). The protocol:
as §1

A further assay concerns Huh-7 hepatoma cell line. The assay is described as follows: MTT cell viability assay, Huh-7. Format: cell-based. The conditions noted are these: Homo sapiens, read-out: EC50 on cell viability, Huh-7 (Liver). How it is done:
as §1

The target of the next assay is Raf-1 (Homo sapiens (Human), UniProt P04049). The experiment in a line: In vitro kinase inhibition assay (ADP-Glo), Raf-1. Format: biochemical. The protocol: (§2) All measurements included background and control (vehicle only) luminescence readings.
(§3) The kinases Raf-1 and b-Raf (V600E), and their corresponding substrate, MEK1, and Full length recombinant CRAF kinase and its respective substrate, recombinant MEK1, were purchased from US Biological (Swampscott, Mass.). All assays were performed under identical conditions for the Raf isozymes: 10 nM Enzyme, 1 μM MEK1, 10 μM ATP, at 22° C. for 2 hours. […] IC50 values were obtained by determining the change in the ADP production (luminescence signal) at various inhibitor concentrations as compared to the control assay. Individual data sets were performed in duplicate and each IC50 was determined by the average and standard deviation of three separate experiments.
Full length recombinant CRAF kinase and its respective substrate, recombinant MEK1, were purchased from US Biological (Swampscott, Mass.). All assays were performed at 10 nM CRAF, 1 μM MEK1, 10 μM ATP, at 22° C. for 2 hours. […] IC50 values were obtained by determining the change in the ADP production (luminescent signal) at various inhibitor concentrations as compared to the control assay. Individual data sets were performed in duplicate and each IC50 was determined by the mean and standard deviation of three separate experiments.

Another assay has as its target b-Raf (V600E) (Homo sapiens (Human), UniProt P15056, V600E). The experiment in a line: In vitro kinase inhibition assay (ADP-Glo), b-Raf (V600E). It is filed as biochemical. How it is done:
as §2, §3

The subject of assay [2] is SKBR3 breast cancer cell line. The assay is described as follows: MTT cell viability assay, SKBR3. It is filed as cell-based. The conditions noted are these: Homo sapiens, SK-BR-3; MTT, 72 hours incubation; read-out: EC50 on cell viability, SKBR3 (Breast). How it is done:
Cell-based assays were performed using the described cell lines, grown in the appropriate Growth Mediums containing 10% fetal bovine serum and 1% penicillin-streptomycin. Cancer cells were plated at 15,000 cells/well in 96-well plates and allowed to attach overnight. Inhibitors were dissolved in DMSO and then diluted to concentrations ranging from 0.1-25 μM with a final DMSO concentration of 0.1%. Cell viability was determined after 72 hours incubation periods. To determine anti-proliferative effects of inhibitors, cellular proliferation was determined using the colorimetric MTT cell viability assay kit, as described by the manufacture (ATCC).

Setting [3] is: 10 nM enzyme, 1 μM MEK1, 10 μM ATP, 22° C., 2 hours, read-out: Raf-1 IC50.

Chain of Raf-1 (P04049 whole entry): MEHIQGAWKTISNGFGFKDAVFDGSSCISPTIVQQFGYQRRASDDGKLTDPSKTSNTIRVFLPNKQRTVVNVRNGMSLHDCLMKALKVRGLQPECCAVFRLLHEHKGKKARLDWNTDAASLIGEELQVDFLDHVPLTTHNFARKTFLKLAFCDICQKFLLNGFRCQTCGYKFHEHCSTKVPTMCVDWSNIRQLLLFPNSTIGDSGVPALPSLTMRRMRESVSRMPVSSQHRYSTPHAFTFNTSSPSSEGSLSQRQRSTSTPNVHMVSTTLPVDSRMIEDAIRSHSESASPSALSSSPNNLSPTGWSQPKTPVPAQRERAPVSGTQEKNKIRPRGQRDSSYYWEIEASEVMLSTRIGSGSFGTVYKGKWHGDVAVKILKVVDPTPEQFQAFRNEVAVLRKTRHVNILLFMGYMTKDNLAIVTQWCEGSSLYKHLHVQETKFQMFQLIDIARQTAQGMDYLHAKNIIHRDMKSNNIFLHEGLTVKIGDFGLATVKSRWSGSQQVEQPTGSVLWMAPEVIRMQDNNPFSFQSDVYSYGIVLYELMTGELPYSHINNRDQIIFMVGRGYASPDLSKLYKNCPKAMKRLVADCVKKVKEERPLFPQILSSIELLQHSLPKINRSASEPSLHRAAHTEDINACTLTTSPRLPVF
Chain of b-Raf (V600E) (P15056 whole entry V600E): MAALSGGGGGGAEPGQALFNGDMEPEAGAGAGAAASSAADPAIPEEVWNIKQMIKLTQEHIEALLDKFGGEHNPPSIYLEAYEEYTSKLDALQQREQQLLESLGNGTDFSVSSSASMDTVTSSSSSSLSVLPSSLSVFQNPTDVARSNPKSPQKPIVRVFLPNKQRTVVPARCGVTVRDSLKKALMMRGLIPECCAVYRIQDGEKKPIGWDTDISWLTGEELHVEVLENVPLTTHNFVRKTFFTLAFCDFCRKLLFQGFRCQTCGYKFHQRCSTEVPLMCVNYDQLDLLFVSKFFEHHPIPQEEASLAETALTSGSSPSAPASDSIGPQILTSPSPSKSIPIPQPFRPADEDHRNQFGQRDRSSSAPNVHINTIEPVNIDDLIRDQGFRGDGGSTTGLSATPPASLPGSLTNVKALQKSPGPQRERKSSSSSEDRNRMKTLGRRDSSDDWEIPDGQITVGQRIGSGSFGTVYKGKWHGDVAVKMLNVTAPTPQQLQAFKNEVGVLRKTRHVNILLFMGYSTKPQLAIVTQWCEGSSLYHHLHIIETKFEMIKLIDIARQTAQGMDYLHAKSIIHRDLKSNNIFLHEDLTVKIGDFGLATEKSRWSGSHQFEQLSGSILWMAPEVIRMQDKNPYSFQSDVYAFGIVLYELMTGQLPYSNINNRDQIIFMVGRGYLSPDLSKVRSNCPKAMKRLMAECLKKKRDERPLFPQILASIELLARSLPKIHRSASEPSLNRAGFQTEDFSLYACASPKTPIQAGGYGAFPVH
Chain of human sEH (P34913 whole entry): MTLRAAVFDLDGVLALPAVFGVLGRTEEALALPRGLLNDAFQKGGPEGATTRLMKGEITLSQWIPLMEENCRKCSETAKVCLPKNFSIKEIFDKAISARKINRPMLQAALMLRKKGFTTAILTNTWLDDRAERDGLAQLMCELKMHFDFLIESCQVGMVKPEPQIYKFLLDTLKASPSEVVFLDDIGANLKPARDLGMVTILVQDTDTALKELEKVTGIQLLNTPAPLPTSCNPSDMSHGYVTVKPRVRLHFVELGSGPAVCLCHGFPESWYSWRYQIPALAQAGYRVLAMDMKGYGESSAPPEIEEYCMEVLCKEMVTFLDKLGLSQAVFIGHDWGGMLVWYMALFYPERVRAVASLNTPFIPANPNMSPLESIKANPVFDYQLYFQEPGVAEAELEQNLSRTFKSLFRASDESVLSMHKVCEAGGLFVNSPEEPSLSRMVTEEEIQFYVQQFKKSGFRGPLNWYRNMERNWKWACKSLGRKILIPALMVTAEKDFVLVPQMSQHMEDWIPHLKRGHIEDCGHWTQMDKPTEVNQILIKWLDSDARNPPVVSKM

Consider `O=C(NC12CC3CC(CC(C3)C1)C2)N[C@H]1CC[C@H](Oc2ccc(C(=O)O)cc2)CC1` [Compound 1471, reference compound], for which the EC50 in assay [1] is above 25000 nM. Take `CCOC(=O)c1ccc(O[C@H]2CC[C@@H](NC(=O)Nc3ccc(OC(F)(F)F)cc3)CC2)cc1` [Compound 1612, reference compound]: the IC50 on human sEH (read-out: Human sEH IC50) came out at 3.4 nM.

In the case of `O=C(Nc1ccc(OC(F)(F)F)cc1)N[C@H]1CC[C@H](Oc2ccc(C(=O)O)cc2)CC1` [Compound 1728, trans-4-{4-[3-(4-Trifluoromethoxy-phenyl)-ureido]-cyclohexyloxy}-benzoic acid], the “Effect on Hep G2 cell viability (dose dependence)” value in the assay with HepG2 hepatoma cell line (FIG. 2) and in the assay on HepG2 hepatoma cell line (FIG. 4) was “limited effect” in each case. Besides, the EC50 with HepG2 hepatoma cell line (HepG2, 72 h) stood at 15000 nM; in the assay on Huh-7 hepatoma cell line (Huh-7, 72 h) it was 20000 nM; in assay [1], 15000 nM. In addition, the “Effect on sunitinib's ability to kill cancer cells” value in the assay on HepG2 hepatoma cell line (administered in combination with sunitinib, Hep G2) is reported as “potentiates”.

As for `O=C(Nc1ccc(Cl)cc1)N[C@H]1CC[C@H](Oc2ccc(C(=O)O)cc2)CC1` [Compound 2084, trans-4-{4-[3-(4-Chloro-phenyl)-ureido]-cyclohexyloxy}-benzoic acid], the IC50 on human sEH (read-out: Human sEH IC50) is 5.5 nM; at Raf-1 (setting [3]) it was above 10000 nM. With `N#Cc1ccc(O[C@H]2CC[C@H](NC(=O)Nc3ccc(Cl)c(C(F)(F)F)c3)CC2)cc1` [Compound 2182, trans-1-(4-Chloro-3-trifluoromethyl-phenyl)-3-[4-(4-cyano-phenoxy)-cyclohexyl]-urea], the IC50 against human sEH came out at 14.6 nM. On to `O=C(Nc1ccc(Cl)c(C(F)(F)F)c1)N[C@H]1CC[C@H](Oc2ccc(C(=O)O)cc2)CC1` [Compound 2221, trans-4-{4-[3-(4-Chloro-3-trifluoromethyl-phenyl)-ureido]-cyclohexyloxy}-benzoic acid], for which the IC50 was 0.5 nM on human sEH and above 10000 nM on b-Raf (V600E). For the compound `CNC(=O)c1ccc(O[C@H]2CC[C@@H](NC(=O)Nc3ccc(OC(F)(F)F)cc3)CC2)cc1` [Compound 2228, cis-N-Methyl-4-{4-[3-(4-trifluoromethoxy-phenyl)-ureido]-cyclohexyloxy}-benzamide], the IC50 against Raf-1 is above 10000 nM. Take `CNC(=O)c1ccc(O[C@H]2CC[C@H](NC(=O)Nc3ccc(Cl)c(C(F)(F)F)c3)CC2)cc1` [Compound 2253, trans-4-{4-[3-(4-Chloro-3-trifluoromethyl-phenyl)-ureido]-cyclohexyloxy}-N-methyl-benzamide]: the IC50 at human sEH (read-out: Human sEH IC50) was determined as 0.5 nM. Consider `CC(C)(C)OC(=O)c1cc(O[C@H]2CC[C@H](NC(=O)Nc3ccc(Cl)c(C(F)(F)F)c3)CC2)ccn1` [Compound 2280, trans-4-{4-[3-(4-Chloro-3-trifluoromethyl-phenyl)-ureido]-cyclohexyloxy}-pyridine-2-carboxylic acid tert-butyl ester], for which the IC50 against b-Raf (V600E) was above 10000 nM. Turning to `CNC(=O)c1cc(Oc2ccc(NC(=O)NC34CC5CC(CC(C5)C3)C4)cc2)ccn1` [Compound 2287, 4-[4-(3-Adamantan-1-yl-ureido)-phenoxy]-pyridine-2-carboxylic acid methylamide], the IC50 at human sEH (read-out: Human sEH IC50) was 0.5 nM; on Raf-1 (setting [3]) it was above 10000 nM; at b-Raf (V600E), above 10000 nM.

In the case of `O=C(Nc1ccc(Cl)c(C(F)(F)F)c1)N[C@H]1CC[C@H](Oc2ccc(C(F)(F)F)cn2)CC1` [Compound 2288, trans-1-(4-Chloro-3-trifluoromethyl-phenyl)-3-[4-(5-trifluoromethyl-pyridin-2-yloxy)-cyclohexyl]-urea], the IC50 at human sEH (read-out: Human sEH IC50) is 9 nM; at Raf-1 (setting [3]), above 10000 nM; against b-Raf (V600E), above 10000 nM. As to `CC(C)(C)OC(=O)c1ccc(O[C@H]2CC[C@H](NC(=O)Nc3ccc(Cl)c(C(F)(F)F)c3)CC2)cn1` [Compound 2315, trans-5-{4-[3-(4-Chloro-3-trifluoromethyl-phenyl)-ureido]-cyclohexyloxy}-pyridine-2-carboxylic acid tert-butyl ester], the IC50 on human sEH (read-out: Human sEH IC50) was 0.5 nM; on Raf-1 (setting [3]), above 10000 nM. As for `CNC(=O)c1ccc(O[C@H]2CC[C@H](NC(=O)Nc3ccc(Cl)c(C(F)(F)F)c3)CC2)cn1` [Compound 2316, trans-5-{4-[3-(4-Chloro-3-trifluoromethyl-phenyl)-ureido]-cyclohexyloxy}-pyridine-2-carboxylic acid methylamide], the half-maximal inhibitory concentration (IC50) at human sEH (read-out: Human sEH IC50) is 0.5 nM; on Raf-1 (setting [3]) it was 175 ± 20 nM; against b-Raf (V600E), 1500 nM. As to `CC(C)(C)OC(=O)c1cc(O[C@H]2CC[C@@H](NC(=O)Nc3ccc(Cl)c(C(F)(F)F)c3)CC2)ccn1` [Compound 2318, cis-4-{4-[3-(4-Chloro-3-trifluoromethyl-phenyl)-ureido]-cyclohexyloxy}-pyridine-2-carboxylic acid tert-butyl ester], the inhibition at 10 µM was determined as 54% at Raf-1 (read-out: Raf-1 % inhibition, at 10 μM concentration) and 51% against b-Raf (V600E) (at 10 μM concentration). Turning to `CNC(=O)c1cc(O[C@H]2CC[C@@H](NC(=O)Nc3ccc(Cl)c(C(F)(F)F)c3)CC2)ccn1` [Compound 2319, cis-4-{4-[3-(4-chloro-3-trifluoromethyl-phenyl)-ureido]-cyclohexyloxy}-pyridine-2-carboxylic acid methylamide], the EC50 in assay [2] was 8000 nM; in the assay with HepG2 hepatoma cell line (HepG2, MTT, 72 hours incubation), 7500 nM; in the assay with Huh-7 hepatoma cell line (Huh-7, MTT, 72 hours incubation), 8500 nM. Besides, at human sEH (read-out: Human sEH IC50), the IC50 was determined as 0.5 nM. Regarding `O=C(Nc1ccc(C(F)(F)F)cc1)N[C@H]1CC[C@H](Oc2ccc(C(=O)O)cc2)CC1` [Compound 2372, trans-4-{4-[3-(4-Trifluoromethyl-phenyl)-ureido]-cyclohexyloxy}-benzoic acid], the IC50 at human sEH (read-out: Human sEH IC50) was 0.9 nM; on Raf-1 (setting [3]), above 10000 nM. `CCN(CC)C(=O)c1cc(O[C@H]2CC[C@H](NC(=O)Nc3ccc(Cl)c(C(F)(F)F)c3)CC2)ccn1` [Compound 2574, trans-4-{4-[3-(4-Chloro-3-trifluoromethyl-phenyl)-ureido]-cyclohexyloxy}-pyridine-2-carboxylic acid diethylamide]: the IC50 on human sEH (read-out: Human sEH IC50) was 0.5 nM; at Raf-1 (setting [3]) it was above 10000 nM.

Turning to `CNC(=O)c1cc(O[C@H]2CC[C@H](NC(=O)Nc3ccc(OC(F)(F)F)cc3)CC2)ccn1` [Compound 2575, trans-4-{4-[3-(4-Trifluoromethoxy-phenyl)-ureido]-cyclohexyloxy}-pyridine-2-carboxylic acid methylamide], the IC50 at human sEH (read-out: Human sEH IC50) was 0.5 nM; at Raf-1 (setting [3]), above 10000 nM. With `CCN(CC)C(=O)c1cc(O[C@H]2CC[C@H](NC(=O)Nc3ccc(OC(F)(F)F)cc3)CC2)ccn1` [Compound 2577, trans-4-{4-[3-(4-Trifluoromethoxy-phenyl)-ureido]-cyclohexyloxy}-pyridine-2-carboxylic acid diethylamide], on human sEH (read-out: Human sEH IC50), the IC50 was determined as 0.5 nM.

Consider `O=C(Nc1ccc(OC(F)(F)F)cc1)N[C@H]1CC[C@H](Oc2ccnc(C(=O)N3CCCC3)c2)CC1` [Compound 2578, trans-1-{4-[2-(Pyrrolidine-1-carbonyl)-pyridin-4-yloxy]-cyclohexyl}-3-(4-trifluoromethoxy-phenyl)-urea], for which, at human sEH (read-out: Human sEH IC50), the IC50 was found to be 0.5 nM.

As to `N#Cc1ccc(O[C@H]2CC[C@H](NC(=O)Nc3ccc(C(F)(F)F)cc3)CC2)cc1` [Compound 2579, trans-1-[4-(4-Cyano-phenoxy)-cyclohexyl]-3-(4-trifluoromethyl-phenyl)-urea], at human sEH (read-out: Human sEH IC50), the IC50 came out at 0.5 nM. For the compound `N#Cc1ccc(O[C@H]2CC[C@H](NC(=O)Nc3ccc(Cl)cc3)CC2)cc1` [Compound 2580, trans-1-(4-Chloro-phenyl)-3-[4-(4-cyano-phenoxy)-cyclohexyl]-urea], the IC50 on human sEH (read-out: Human sEH IC50) was found to be 0.5 nM.

For `N#Cc1ccc(O[C@H]2CC[C@H](NC(=O)Nc3ccc(OC(F)(F)F)cc3)CC2)cc1` [Compound 2581, trans-1-[4-(4-Cyano-phenoxy)-cyclohexyl]-3-(4-trifluoromethoxy-phenyl)-urea], on human sEH (read-out: Human sEH IC50), the IC50 is 0.5 nM.
